Consider 22 compounds from patent publication US20260008775A1, “AZOLE MODULATORS OF CHOLESTEROL BIOSYNTHESIS AND THEIR USE FOR PROMOTING REMYELINATION” (GENENTECH, INC., priority 2022, published 2026).

SMILES strings stand for the structures.

Test [1] concerns zymostenol accumulation (EBP) in EpiSC-derived OPCs. As to the kind of experiment: GC/MS-based sterol profiling, zymostenol accumulation in EpiSC-derived OPCs. In kind it is cell-based, mouse. To be noted: for EC50: Mus musculus, 24 h, EpiSC-derived OPCs, 24 hr, 8 doses from 0.15 nM to 333 nM, read-out: Mouse Zymostenol GCMS EC50. An outline of the steps:
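Zymostenol level is expressed relative to that after 24 h with 100 nM positive-control reference, measured by full-scan GC/MS (m/z 458) with cholesterol-d7 internal standard after BSTFA derivatisation. Cells were EpiSC-derived OPCs, 100,000/well in N2B27 without growth factors, treated 24 h, from two or more independent platings.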

For test [2], the target named is human emopamil binding protein and human 7-dehydrocholesterol reductase (hEBP-DHCR7) (Homo sapiens (Human), UniProt Q15125). Briefly: hEBP-DHCR7 radioligand binding assay (filter binding, membranes of co-expressing HEK293 cells). To be noted: competition with [3H] radioligand, 8 doses 0.06 to 5000 nM, Ki calculated from IC50. The procedure, abridged: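 Compound, either single dose 1 μM or eight 5-fold dilutions from 0.06 to 5000 nM, competed with a [3H]-labelled ligand added at 25 nM for binding to co-expressing HEK293 membranes. IC50 came from nonlinear regression, with full block and DMSO as controls, then Cheng–Prusoff conversion to Ki.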
Chain of human emopamil binding protein and human 7-dehydrocholesterol reductase (hEBP-DHCR7) (Q15125 whole entry): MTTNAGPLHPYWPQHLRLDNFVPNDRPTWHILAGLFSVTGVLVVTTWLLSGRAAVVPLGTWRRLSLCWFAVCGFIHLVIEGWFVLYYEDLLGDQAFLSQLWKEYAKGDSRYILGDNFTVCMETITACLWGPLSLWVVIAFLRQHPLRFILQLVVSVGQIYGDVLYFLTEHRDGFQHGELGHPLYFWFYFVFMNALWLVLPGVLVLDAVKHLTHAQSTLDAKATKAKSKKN

Another test has as its system EpiSC-derived OPCs. As to the kind of experiment: In vitro phenotypic screening of OPCs, MBP high-content imaging (percentage of oligodendrocytes). Format: cell-based, mouse. To be noted: for EC50: Mus musculus, 72 h, 3 days, MBP stain, dose-response 0.5 nM to 1000 nM, read-out: OPC EC50. The method, then:
To assess effects of treatments on OPCs, all treatments were assayed in two or more independent platings of epiblast stem cell-derived OPCs (EpiSC). EpiSC-derived OPCs were obtained using in vitro differentiation protocols and culture conditions described previously (Najm et al, 2011, Nature Methods). OPCs were expanded and frozen down in aliquots. OPCs were thawed into growth conditions for at least one passage before use in further assays.
EpiSC-derived OPCs were grown and expanded in poly-L-ornithine (PO) and laminin-coated flasks in N2B27 media (DMEM/F12 (Gibco), N2-MAX (R&D Systems), B-27 (ThermoFisher), and GlutaMax (Gibco)) supplemented with FGF2 (10 μg/mL, R&D systems, 233-FB-025) and PDGF-AA (10 μg/mL, R&D systems, 233-AA-050) before harvesting for experiments. The cells were seeded onto poly-L-ornithine or poly-D-lysine coated CellCarrier Ultra plates (PerkinElmer) coated with laminin (Sigma, L2020) at a density of 150,000/cm^2 in N2B27 media without growth factors. For dose-response testing, a 1000× compound stock in dimethyl sulphoxide (DMSO) was added to assay plates, resulting in 8-point dose curves with final concentrations between 1000 nM and 0.5 nM. Positive controls and DMSO vehicle controls were included in each assay plate. Cells were incubated under standard conditions (37° C., 5% CO2) for 3 days and fixed with 4% paraformaldehyde (PFA) in phosphate buffered saline (PBS) for 20 min. Fixed plates were washed with PBS, permeabilized with 0.1% Triton X-100, and blocked with 10% donkey serum (v/v) in PBS for 40 min. Then, cells were labelled with MBP antibodies (Abcam, ab7349; 1:200) for 2 h at room temperature, washed with PBS, and stained with Alexa Fluor conjugated secondary antibodies (1:500) for 45 min. Nuclei were visualized by DAPI staining (Sigma; […]), followed by further PBS washes.
Cells and cell culture plates were imaged on the Operetta High Content Imaging and Analysis system (PerkinElmer). Analysis (PerkinElmer Harmony and Columbus software) began by identifying intact nuclei stained by DAPI. The peri-nuclear region of each cell was then cross-referenced with the mature myelin protein (MBP) stain to identify oligodendrocyte nuclei, and from this the percentage of oligodendrocytes was calculated. EC50 values were calculated using The Levenberg-Marquardt algorithm to fit a Hill equation to dose-response data (0.5 nM to 1000 nM).

As usually defined, the EC50 is the concentration at which the effect is half-maximal. As a reminder, the Ki is the dissociation constant of the complex between target and ligand, obtained from inhibition or displacement. As for `FC(F)(F)c1cccc(-c2nc([C@H]3CC[C@H](N4CCCOCC4)C3)n(C3CC3)n2)n1` (single isomer, unassigned) [9*], the EC50 in test [1] is 21.4 nM; in the test with EpiSC-derived OPCs it was 73.4 nM. Also, in test [2], the Ki is 113 nM.
As to `FC(F)(F)c1cccc(-c2nc([C@H]3CC[C@@H](N4CCCOCC4)C3)n(C3CC3)n2)n1` (single isomer, unassigned) [10*], the concentration giving a half-maximal response (EC50) in test [1] was 18 nM; with EpiSC-derived OPCs it was 54.2 nM. Also, the Ki in test [2] was 95.8 nM.
Take `FC(F)(F)c1cccc(-c2nc([C@@H]3CC[C@@H](N4CCCOCC4)C3)n(C3CC3)n2)n1` (single isomer, unassigned) [11*]: the values for the EC50 (in test [1]; in the test on EpiSC-derived OPCs) were 19.7 nM and 108 nM, respectively. In addition, in test [2], the Ki was 134 nM.
Consider `FC(F)(F)c1cccc(-c2nc([C@@H]3CC[C@H](N4CCCOCC4)C3)n(C3CC3)n2)n1` (single isomer, unassigned) [12*], for which the concentration for a half-maximal effect (EC50) came to 64 nM in test [1] and 63.8 nM in the test on EpiSC-derived OPCs. Besides, the inhibition constant Ki in test [2] was 120 nM.
As to `CC(C)n1nc(-c2cccc(C(F)(F)F)c2)nc1[C@@H]1CC[C@@H](N2CCOCC2)C1` (single isomer, unassigned) [21*], the results for the half-maximal effective concentration (EC50) (in test [1]; in the test on EpiSC-derived OPCs) were 7.71 nM and 51.7 nM, respectively. The inhibition constant (Ki) in test [2] was 27.1 nM.
Consider `CC(C)n1nc(-c2cccc(C(F)(F)F)n2)nc1[C@@H]1CCC(N2CCOCC2)C1` (stereo in doubt) [25*, 4-((1R,3R)-3-(1-isopropyl-3-(6-(trifluoromethyl)pyridin-2-yl)-1H-1,2,4-triazol-5-yl)cyclopentyl)morpholine], for which the concentration giving a half-maximal response (EC50) in test [1] came out at 234 nM; with EpiSC-derived OPCs, 65.5 nM.
For `CC(C)n1nc(-c2cccc(C(F)(F)F)c2)nc1[C@H]1[C@@H]2C[C@@H](N3CCOCC3)C[C@@H]21` [20*, 4-((1R,3s,5S,6r)-6-(1-isopropyl-3-(3-(trifluoromethyl)phenyl)-1H-1,2,4-triazol-5-yl)bicyclo[3.1.0]hexan-3-yl)morpholine] the same measures were 64 nM and 232 nM.
For `CC(C)n1nc(-c2cncc(C(F)(F)F)c2)cc1[C@H]1[C@@H]2C[C@@H](N3CCOCC3)C[C@@H]21` [Cmpd 202] the same measures were 236 nM and 723 nM.
Take `CC(C)n1nc(-c2cccc(C(F)(F)F)c2)nc1[C@H]1[C@@H]2C[C@H](N3CCCOCC3)C[C@@H]21` [Compound 13, 4-((1R,3r,5S,6r)-6-(1-isopropyl-3-(3-(trifluoromethyl)phenyl)-1H-1,2,4-triazol-5-yl)bicyclo[3.1.0]hexan-3-yl)-1,4-oxazepane]: the concentration giving a half-maximal response (EC50) came to 1.48 nM in test [1] and 3.18 nM with EpiSC-derived OPCs.
`CC(C)n1nc(-c2cccc(C(F)(F)F)c2)nc1[C@H]1[C@@H]2C[C@@H](N3CCCOCC3)C[C@@H]21` [Compound 14, 4-((1R,3s,5S,6r)-6-(1-isopropyl-3-(3-(trifluoromethyl)phenyl)-1H-1,2,4-triazol-5-yl)bicyclo[3.1.0]hexan-3-yl)-1,4-oxazepane]: the values for the EC50 (in test [1]; in the test on EpiSC-derived OPCs) were 40.2 nM and 81.3 nM, respectively.
For the compound `CC(C)n1nc(-c2ccc(C(F)(F)F)nc2)nc1[C@H]1[C@@H]2C[C@H](N3CCCOCC3)C[C@@H]21` [Compound 15, 4-((1R,3r,5S,6r)-6-(1-isopropyl-3-(6-(trifluoromethyl)pyridin-3-yl)-1H-1,2,4-triazol-5-yl)bicyclo[3.1.0]hexan-3-yl)-1,4-oxazepane], the values for the 50% effective concentration (EC50) (in test [1]; with EpiSC-derived OPCs) were 5.98 nM and 22.4 nM, respectively.
Take `CC(C)n1nc(-c2ccc(C(F)(F)F)nc2)nc1[C@H]1[C@@H]2C[C@@H](N3CCCOCC3)C[C@@H]21` [Compound 16, 4-((1R,3s,5S,6r)-6-(1-isopropyl-3-(6-(trifluoromethyl)pyridin-3-yl)-1H-1,2,4-triazol-5-yl)bicyclo[3.1.0]hexan-3-yl)-1,4-oxazepane]: the values for the half-maximal effective concentration (EC50) (in test [1]; in the test on EpiSC-derived OPCs) were 203 nM and 333 nM, respectively.
For `CC(C)n1nc(-c2cccc(OC(F)(F)F)c2)nc1[C@H]1[C@@H]2C[C@H](N3CCCOCC3)C[C@@H]21` [Compound 17, 4-((1R,3r,5S,6r)-6-(1-isopropyl-3-(3-(trifluoromethoxy)phenyl)-1H-1,2,4-triazol-5-yl)bicyclo[3.1.0]hexan-3-yl)-1,4-oxazepane], the results for the EC50 (in test [1]; in the test on EpiSC-derived OPCs) were 1.74 nM and 4.16 nM, respectively.
As for `CC(C)n1nc(-c2cccc(OC(F)(F)F)c2)nc1[C@H]1[C@@H]2C[C@@H](N3CCCOCC3)C[C@@H]21` [Compound 18, 4-((1R,3s,5S,6r)-6-(1-isopropyl-3-(3-(trifluoromethoxy)phenyl)-1H-1,2,4-triazol-5-yl)bicyclo[3.1.0]hexan-3-yl)-1,4-oxazepane], the 50% effective concentration (EC50) in test [1] was 52.8 nM; in the test with EpiSC-derived OPCs, 78.5 nM.
Take `CC[C@H]1CN([C@H]2CC[C@@H](c3nc(-c4cnc(C(F)(F)F)nc4)nn3C(C)C)C2)CCO1` [Compound 154, (S)-2-Ethyl-4-((1S,3R)-3-(1-isopropyl-3-(2-(trifluoromethyl)pyrimidin-5-yl)-1H-1,2,4-triazol-5-yl)cyclopentyl)morpholine]: the EC50 in test [1] was 221 nM. Further, in test [2], the inhibitory constant (Ki) was 465 nM.
Take `CC[C@H]1CN([C@@H]2CC[C@@H](c3nc(-c4cnc(C(F)(F)F)nc4)nn3C(C)C)C2)CCO1` [Compound 155, (S)-2-Ethyl-4-((1R,3R)-3-(1-isopropyl-3-(2-(trifluoromethyl)pyrimidin-5-yl)-1H-1,2,4-triazol-5-yl)cyclopentyl) morpholine]: the half-maximal effective concentration (EC50) in test [1] turned out to be 305 nM. Moreover, the Ki in test [2] was 465 nM.
With `CC[C@@H]1CN([C@@H]2CC[C@H](c3nc(-c4ccc(C(F)F)nc4)nn3C(C)C)C2)CCO1` [Compound 156, (R)-4-((1R,3S)-3-(3-(6-(Difluoromethyl)pyridin-3-yl)-1-isopropyl-1H-1,2,4-triazol-5-yl)cyclopentyl)-2-ethylmorpholine], the half-maximal effective concentration (EC50) in test [1] came to 4.07 nM. For the same compound, the inhibition constant Ki in test [2] is 43.8 nM.
For the compound `CC(C)n1nc(-c2cncc(C(F)(F)F)c2)cc1[C@H]1[C@@H]2C[C@H](N3CCOCC3)C[C@@H]21` [Compound 171, 4-((1R,3r,5S,6r)-6-(1-Isopropyl-3-(5-(trifluoromethyl)pyridin-3-yl)-1H-pyrazol-5-yl)bicyclo[3.1.0]hexan-3-yl)morpholine], the 50% effective concentration (EC50) amounted to 5.88 nM in test [1] and 16.6 nM with EpiSC-derived OPCs.
On to `CC(C)n1nc(-c2ccc(C(F)(F)F)cn2)cc1[C@H]1[C@@H]2C[C@H](N3CCOCC3)C[C@@H]21` [Compound 174, 4-((1R,3r,5S,6r)-6-(1-Isopropyl-3-(5-(trifluoromethyl)pyridin-2-yl)-1H-pyrazol-5-yl)bicyclo[3.1.0]hexan-3-yl)morpholine], for which the EC50 in test [1] worked out at 7.51 nM; in the test with EpiSC-derived OPCs, 35 nM.
As to `CC(C)n1nc(-c2cc(C(F)(F)F)ncn2)cc1[C@H]1[C@@H]2C[C@@H](N3CCOC[C@H]3C)C[C@@H]21` [Compound 202, (R)-4-((1R,3s,5S,6R)-6-(1-isopropyl-3-(6-(trifluoromethyl)pyrimidin-4-yl)-1H-pyrazol-5-yl)bicyclo[3.1.0]hexan-3-yl)-3-methylmorpholine], the concentration for a half-maximal effect (EC50) in test [1] was found to be 4.76 nM; in the test on EpiSC-derived OPCs, 21.6 nM.
Take `CC(C)n1nc(-c2cnc(N)c(C(F)(F)F)c2)cc1[C@H]1[C@@H]2C[C@H](N3CCOCC3)C[C@@H]21` [Compound B, reference compound]: the half-maximal effective concentration (EC50) with EpiSC-derived OPCs came out at 692 nM. Moreover, the “fold decrease in activity in the OPC assay” value in the test with EpiSC-derived OPCs (as compared to compound 171) is listed as 41.7 fold.
As to `CC(C)n1nc(-c2cnc(N)c(C(F)(F)F)c2)cc1[C@H]1[C@@H]2C[C@H](N3CCCOCC3)C[C@@H]21` [Compound C, reference compound], the EC50 in test [1] is 15.6 nM; in the test on EpiSC-derived OPCs it was 75 nM. In addition, the “fold decrease in activity in the mouse zymostenol assay” value in test [1] (as compared to compound 29*) came to 4.9 fold. Also, the “fold decrease in activity in the OPC assay” value with EpiSC-derived OPCs (as compared to compound 29*) is 3.8 fold.
